In patent US20250382373A1, “ANTI-EGFR/MET ANTIBODIES AND USES THEREOF” (Biocytogen Pharmaceuticals (Beijing) Co., Ltd., priority 2022, published 2025):

Columns and labels:
HCC827 cells = assay: Internalization of antibodies targeting EGFR and/or MET in HCC827 cells; assay type: cell-based, human; settings: HCC827, 1 hour
Procedure: (§1) Anti-EGFR antibodies, anti-MET antibodies, or anti-EGFR/MET bispecific antibodies, together with the pHAb-Goat anti-human IgG secondary antibody were added to NCI-H1975 cells (ATCC, Reference No.: CRL-5908), HCC827 cells (ATCC, Reference No.: CRL-2868) and NCI-H292 (ATCC, Reference No.: CRL-1848) cells, respectively, and incubated for 1 hour. The cells were centrifuged and washed with FACS buffer. MFI was measured using a flow cytometer. Endocytosis rates of antibodies were calculated. For isotype control (ISO), an antibody targeting an irrelevant target protein was used.

NCI-H292 cells [1] = assay: Internalization of antibodies targeting EGFR and/or MET in NCI-H292 cells; assay type: cell-based, human; settings: NCI-H292, 1 hour
Procedure: as §1

[2] = tested on: patient-derived pancreatic tumor fragments (PDX003); assay: Human pancreatic PDX003 model; settings: for TGI (%): Day 21; for Tumor volume Day 0: day of grouping; for Survival: surviving/total mice
Procedure: The antibodies were tested for their effect in two human pancreatic PDX (PDX003 and PDX004) models.
In PDX003 model, B-NDG mice were engrafted in the right flank with patient-derived pancreatic tumor fragments (2 mm×2 mm×2 mm). When the tumors in the mice reached a volume of about 300-400 mm^3, the mice were randomly placed into different groups based on the volume of the tumor.

NCI-H292 cells [3] = assay: NCI-H292 xenograft model in B-NDG mice; settings: for Tumor volume Day 14: 14 days after grouping; for Tumor volume Day 14 / Tumor volume Day 0 / Tumor volume Day 24: 1×10^7 NCI-H292 cells, about 300 mm^3 at grouping; for TGI (%): Day 24; for TGI (%) / Survival: 1×10^7 NCI-H292 cells experiment; for Tumor volume Day 0: day of grouping; for Tumor volume Day 24: end of experiment; for Survival: surviving/total mice
Procedure: The antibodies were tested for their effect on tumor growth in vivo in a model of lung carcinoma. About 1×10^7 NCI-H292 cells were injected subcutaneously in B-NDG mice. When the tumor in mice reached a volume of about 300 mm^3, the mice were randomly placed into different groups based on the volume of the tumor. The mice were then injected with PBS or antibodies by intravenous (i.v.) administration. The frequency of administration was once a week (2 administrations in total).

[4] = tested on: patient-derived lung tumor fragments (PDX002); assay: Human lung PDX002 model; assay type: in vivo, B-NDG mice; settings: once a week x2; for Tumor volume Day 0: day of grouping; for Survival: surviving/total mice
Procedure: The control group mice were injected with PBS (G1).

SNU-5 cells = assay: SNU-5 xenograft model (gastric carcinoma) in B-NDG mice; assay type: in vivo; settings: for Tumor volume Day 10: 10 days after grouping; for TGI (%): Day 24; for Tumor volume Day 0: day of grouping; for Tumor volume Day 24: end of experiment; for Survival: surviving/total mice
[5] = tested on: human lung cancer cell line NCI-H1975; assay: In vitro killing activity, IncuCyte; assay type: cell-based
Procedure: Different concentrations of purified antibodies (10 μg/mL, 3.33 μg/mL, 1.11 μg/mL, 0.37 μg/mL, 0.123 μg/mL, 0.041 μg/mL, 0.013 μg/mL, and 0.004 μg/mL) and corresponding ADCs were used to treat human lung cancer cell line NCI-H1975 (5×10^3) cultured in a cell culture plate, and the killing activity was detected after 72 hours of incubation in IncuCyte (Sartorius AG, IncuCyte® S3).

[6] = tested on: patient-derived lung tumor fragments (PDX001); assay: Human lung PDX001 model; assay type: in vivo, B-NDG mice; settings: for TGI (%): Day 23; for Tumor volume Day 0: day of grouping; for Survival: surviving/total mice
[7] = tested on: patient-derived pancreatic tumor fragments (PDX004); assay: Human pancreatic PDX004 model; assay type: in vivo, B-NDG mice; settings: Day 35
Text: The tested antibody and the frequency of administration was similar to Table 28.

NCI-H1975 cells = assay: NCI-H1975 xenograft model in B-NDG mice; assay type: in vivo; settings: Table 21 study
Procedure: The lengths of the long axis and the short axis of the tumor were measured and the volume of the tumor was calculated as 0.5×(long axis)×(short axis)^2. The tumor growth inhibition (TGI) was calculated using the following formula: TGI (%)=[1−(Ti−T0)/(Vi−V0)]×100. Ti is the average tumor volume in the treatment group on day i. T0 is the average tumor volume in the treatment group on day zero. Vi is the average tumor volume in the control group on day i. V0 is the average tumor volume in the control group on day zero. T-test was performed for statistical analysis. […] P<0.05 is a threshold to indicate significant difference.

Substance: Amivantamab analog: analog of Amivantamab, fully human bispecific antibody targeting EGFR and MET; SEQ ID NOs: 77-80
- MFI (HCC827 cells): 30401
- Positive Population (HCC827 cells): 88.90%
- MFI (NCI-H292 cells [1]): 13815
- Positive Population (NCI-H292 cells [1]): 67.00%
- Tumor volume Day 11 ([2]; 1 mg/kg i.v. QW x2): 811 ± 65 mm^3
- Tumor volume Day 21 ([2]; 1 mg/kg i.v. QW x2): 1410 ± 130 mm^3
- TGI (%) ([2]; 1 mg/kg i.v. QW x2): −2.0%
- Tumor volume Day 0 ([2]; 1 mg/kg i.v. QW x2): 340 ± 18 mm^3
- Survival ([2]; 1 mg/kg i.v. QW x2): 6/6
- Tumor volume Day 11 ([2]; 3 mg/kg i.v. QW x2): 705 ± 62 mm^3
- Tumor volume Day 21 ([2]; 3 mg/kg i.v. QW x2): 1216 ± 96 mm^3
- TGI (%) ([2]; 3 mg/kg i.v. QW x2): 16.5%
- Tumor volume Day 0 ([2]; 3 mg/kg i.v. QW x2): 340 ± 18 mm^3
- Survival ([2]; 3 mg/kg i.v. QW x2): 6/6
- Tumor volume Day 11 ([2]; 10 mg/kg i.v. QW x2): 666 ± 60 mm^3
- Tumor volume Day 21 ([2]; 10 mg/kg i.v. QW x2): 1146 ± 123 mm^3
- TGI (%) ([2]; 10 mg/kg i.v. QW x2): 23.2%
- Tumor volume Day 0 ([2]; 10 mg/kg i.v. QW x2): 340 ± 16 mm^3
- Survival ([2]; 10 mg/kg i.v. QW x2): 6/6
- Tumor volume Day 14 (NCI-H292 cells [3]; 1 mg/kg i.v. QW x2): 1338 ± 243 mm^3
- TGI (%) (NCI-H292 cells [3]; 1 mg/kg i.v. QW x2): 0.4%
- Tumor volume Day 0 (NCI-H292 cells [3]; 1 mg/kg i.v. QW x2): 311 ± 14 mm^3
- Tumor volume Day 24 (NCI-H292 cells [3]; 1 mg/kg i.v. QW x2): 2485 ± 536 mm^3
- Survival (NCI-H292 cells [3]; 1 mg/kg i.v. QW x2): 4/5
- Tumor volume Day 14 (NCI-H292 cells [3]; 3 mg/kg i.v. QW x2): 1380 ± 320 mm^3
- TGI (%) (NCI-H292 cells [3]; 3 mg/kg i.v. QW x2): 26.2%
- Tumor volume Day 0 (NCI-H292 cells [3]; 3 mg/kg i.v. QW x2): 314 ± 11 mm^3
- Tumor volume Day 24 (NCI-H292 cells [3]; 3 mg/kg i.v. QW x2): 1925 ± 389 mm^3
- Survival (NCI-H292 cells [3]; 3 mg/kg i.v. QW x2): 4/5
- Tumor volume Day 14 (NCI-H292 cells [3]; 10 mg/kg i.v. QW x2): 915 ± 150 mm^3
- TGI (%) (NCI-H292 cells [3]; 10 mg/kg i.v. QW x2): 44.5%
- Tumor volume Day 0 (NCI-H292 cells [3]; 10 mg/kg i.v. QW x2): 327 ± 11 mm^3
- Tumor volume Day 24 (NCI-H292 cells [3]; 10 mg/kg i.v. QW x2): 1538 ± 267 mm^3
- Survival (NCI-H292 cells [3]; 10 mg/kg i.v. QW x2): 4/5
- Tumor volume Day 10 ([4]; 1 mg/kg): 805 ± 99 mm^3
- Tumor volume Day 21 ([4]; 1 mg/kg): 2279 ± 253 mm^3
- Tumor volume Day 0 ([4]; 1 mg/kg): 267 ± 12 mm^3
- Survival ([4]; 1 mg/kg): 0/6
- Tumor volume Day 10 ([4]; 3 mg/kg): 686 ± 55 mm^3
- Tumor volume Day 21 ([4]; 3 mg/kg): 1791 ± 214 mm^3
- Tumor volume Day 35 ([4]; 3 mg/kg): 3509 ± 239 mm^3
- TGI (%) ([4]; 3 mg/kg, Day 35): −7.1%
- Tumor volume Day 0 ([4]; 3 mg/kg): 267 ± 13 mm^3
- Survival ([4]; 3 mg/kg): 3/6
- Tumor volume Day 10 (SNU-5 cells; 3 mg/kg i.v. QW x2): 294 ± 10 mm^3
- TGI (%) (SNU-5 cells; 3 mg/kg i.v. QW x2): 8.4%
- Tumor volume Day 0 (SNU-5 cells; 3 mg/kg i.v. QW x2): 200 ± 5 mm^3
- Tumor volume Day 24 (SNU-5 cells; 3 mg/kg i.v. QW x2): 1111 ± 64 mm^3
- Survival (SNU-5 cells; 3 mg/kg i.v. QW x2): 5/5
- Tumor volume Day 10 (SNU-5 cells; 10 mg/kg i.v. QW x2): 72 ± 9 mm^3
- TGI (%) (SNU-5 cells; 10 mg/kg i.v. QW x2): 106.4%
- Tumor volume Day 0 (SNU-5 cells; 10 mg/kg i.v. QW x2): 200 ± 9 mm^3
- Tumor volume Day 24 (SNU-5 cells; 10 mg/kg i.v. QW x2): 136 ± 35 mm^3
- Survival (SNU-5 cells; 10 mg/kg i.v. QW x2): 5/5
- IC50 ([5]; NCI-H1975, 72 hours): Not detected
- ability to kill NCI-H1975 ([5]; highest concentration of 10 μg/m): neither E-6C4-M-2F11 nor Amivantamab analog has the ability to kill
- Tumor volume Day 12 ([6]; 1 mg/kg i.v. QW x2): 1144 ± 86 mm^3
- Tumor volume Day 23 ([6]; 1 mg/kg i.v. QW x2): 3077 ± 235 mm^3
- TGI (%) ([6]; 1 mg/kg i.v. QW x2): −24.7%
- Tumor volume Day 0 ([6]; 1 mg/kg i.v. QW x2): 223 ± 18 mm^3
- Survival ([6]; 1 mg/kg i.v. QW x2): 4/6
- Tumor volume Day 12 ([6]; 3 mg/kg i.v. QW x2): 1448 ± 195 mm^3
- Tumor volume Day 23 ([6]; 3 mg/kg i.v. QW x2): 2465 ± 145 mm^3
- TGI (%) ([6]; 3 mg/kg i.v. QW x2): 2.0%
- Tumor volume Day 0 ([6]; 3 mg/kg i.v. QW x2): 223 ± 18 mm^3
- Survival ([6]; 3 mg/kg i.v. QW x2): 3/6
- Tumor volume Day 12 ([6]; 10 mg/kg i.v. QW x2): 1132 ± 77 mm^3
- Tumor volume Day 23 ([6]; 10 mg/kg i.v. QW x2): 2666 ± 212 mm^3
- TGI (%) ([6]; 10 mg/kg i.v. QW x2): −6.8%
- Tumor volume Day 0 ([6]; 10 mg/kg i.v. QW x2): 223 ± 22 mm^3
- Survival ([6]; 10 mg/kg i.v. QW x2): 6/6
- TGI (%) ([7]; 1 mg/kg): −13.3%
- TGI (%) ([7]; 3 mg/kg): −0.6%
- TGI (%) ([7]; 10 mg/kg): 4.1%
- Survival (NCI-H1975 cells; 10 mg/kg i.v. QW x2): 5/5
- Tumor volume Day 11 (NCI-H1975 cells; 10 mg/kg i.v. QW x2): 143 ± 20 mm^3
- Tumor volume Day 21 (NCI-H1975 cells; 10 mg/kg i.v. QW x2): 294 ± 40 mm^3
- TGI (%) (NCI-H1975 cells; 10 mg/kg i.v. QW x2, Day 21): 98.4%
- Tumor volume Day 0 (NCI-H1975 cells; 10 mg/kg i.v. QW x2, day of grouping): 260 ± 19 mm^3
